Test: gradient 5% acetonitrile 3 min, to 50% in 2 min, to 85% in 15 min, held 3 min, 100 µL/min
Conditions: column: Zorbax Extend-C18 2.1 x 50 mm; eluents: water / acetonitrile, 0.1% formic acid
How it was run: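 Retention times come from adduct peaks that were picked computationally and then checked by hand. The standards, pure and pooled in mixtures of ~100 molecules, were run on a Zorbax Extend-C18 column (2.1 × 50 mm, 1.8 μm) at 100 μL/min with water and acetonitrile, each with 0.1% formic acid. Detection was by quadrupole time-of-flight mass spectrometry in positive and negative ionization mode, with a dead volume of 40 μL and a dwell volume of 900 μL.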

SMILES	RP-LC retention time
CCN(CC)C(=O)c1cc2c(s1)CCC(C(=O)O)C2 (centres undefined)	703 s
COC(=O)C1=C(N)C(=O)N(CCc2ccc(OC)c(OC)c2)C1	648 s
O=C(Cn1cnc2c(-c3ccc(Cl)cc3)csc2c1=O)NC1CCCC1	933 s
CCN1CCN(CCCNC(=O)C2CCCN(c3nnc(-n4c(C)ccc4C)s3)C2)CC1 (centres undefined)	592 s
O=C1COc2cc(Cl)ccc2N1Cc1nc(-c2ccc(F)c(Cl)c2)no1	1190 s
CCCCN1C(=O)C(C)(C(=O)N2CCN(c3cccc(C)c3C)CC2)Oc2cccnc21 (centres undefined)	1380 s
CSc1ccc(-c2nc3cnccn3c2Nc2cccc(C)c2C)cc1	1060 s
CCC1CCCCN1Cc1ccc(CNC(=O)c2c(C)oc3c2C2=NCCN2C=N3)o1 (centres undefined)	710 s
CC(C)(C)n1cc(C(=O)c2ccccc2)cc1-c1ccccc1	1350 s
CCOc1ccc(NC(=O)c2cccc3ccccc23)c([N+](=O)[O-])c1	1050 s
O=C(NC1CCN(c2cc(-c3ccccc3)[nH]n2)C1)c1ccccc1Cl (centres undefined)	692 s
CCCn1cc(C(=O)Nc2cccc(OC)c2)c(=O)c2ccc(C)nc21	1130 s
CCOC(=O)c1nc(NCCc2ccc(C)cc2)c2ccccc2n1	821 s
Cc1ccc(C(=O)N2CCC(n3cnnc3-c3ccccc3)C2)cn1 (centres undefined)	573 s
O=S(=O)(c1ccc(Br)s1)N1CCCC1c1nc(-c2ccc(F)cc2)no1 (centres undefined)	1180 s
COc1ccc(CN2CCN(C(c3ccc(F)cc3)c3ccc(F)cc3)CC2)c(OC)c1OC	857 s
COc1cccc(-n2c(N3CCCC(C(=O)Nc4ccc(F)c(F)c4)C3)nc3ccsc3c2=O)c1 (centres undefined)	993 s
Cc1noc(/C=C\c2ccc(S(=O)(=O)N3CCOCC3)cc2)c1NC(=O)C1CC1	777 s
c1ccc(-c2nc(-c3ccnc(N4CCOCC4)c3)no2)nc1	665 s
O=C1NCCCn2cc(S(=O)(=O)N3CCN(c4cccc(C(F)(F)F)c4)CC3)cc21	830 s
COc1ccc2c(c1)C1(CCN(C(=O)Cc3ccccc3Cl)C1)C(=O)N2 (centres undefined)	773 s

SMILES	RP-LC retention time
COCCN(C)C(=O)c1cn(C2CN(C(=O)NCC(C)C)C2)nn1	624 s
CSc1ccc(NC(=O)c2cn3c(n2)COCC3)cc1	684 s
COc1ccc(-n2ccc(=O)c(-c3nc(-c4cccc(F)c4)no3)n2)cc1	868 s
O=C(CN1CCN(C(=O)Nc2ccc(Cl)cc2)CC1=O)N1CCN(c2ccc(F)cc2)CC1	766 s
Cc1nc2c(sc3nc(-c4ccccc4)ccc32)c(=O)n1CC(=O)NCc1ccccc1Cl	1030 s
COC(=O)c1cc(OCC(=O)NCc2ccc3c(c2)OCO3)c2cc(OC)ccc2n1	749 s
Cn1nc(-c2nnc(-c3ccccc3)o2)c2c1CCN(S(=O)(=O)c1cccc3cccnc13)C2	857 s
COc1ccc(C2C=C(c3ccc4c(c3)OCO4)Oc3c2c(=O)oc2ccccc32)cc1OC (centres undefined)	1090 s
COC(=O)c1ccc(NC(=O)CN2CC(c3nc(-c4cnccn4)no3)C2)cc1	561 s
O=C(O)c1cc(NS(=O)(=O)c2ccccc2C(F)(F)F)cc(C(=O)O)c1	660 s
Cc1ccc(-c2nc(NCc3cccnc3)ncc2C(=O)O)cc1	587 s
COc1cccc(-c2nnc(SCc3cc(=O)n4c(C)csc4n3)o2)c1	840 s
Cc1ccccc1-c1noc(-c2ccc(S(=O)(=O)N3CCCC3)o2)n1	1070 s
CC(C)c1ccc(S(=O)(=O)N2CCC3(CC2)NCCN=C3NCc2ccccc2)cc1	791 s
COc1cccc(C(=O)Nc2ccc(CC(=O)NCC(F)(F)F)cc2)c1OC	764 s
COc1ccc(NC(=O)Cn2c(=O)n(-c3ccc(F)cc3)c3ncccc32)cc1OC	753 s
O=C(NCCc1csc(C2CCCN(C(=O)C3CCOC3)C2)n1)C1CC1 (centres undefined)	753 s
CCOC(=O)c1noc2nc(C)nc(NCc3ccc(F)cc3)c12	1030 s
Cc1nn(CC(=O)NCCCN2CCOCC2)c(=O)c2nc(-c3ccccc3)sc12	615 s
Cc1ccc(CC(=O)NC2CCN(c3ccc(C)c(C)c3)C2=O)cc1 (centres undefined)	904 s
Cc1ccc(NC(=O)N2CCC(c3cc(N)on3)CC2)cc1C	728 s

The next lines start with the values.

RP-LC retention time	SMILES
595 s	CN(C)C[C@@H]1CN(c2ncccn2)C[C@H]1NC(=O)c1ccc2ccccc2n1
913 s	Cc1cc(OCC(=O)Nc2ccnn2Cc2cccs2)ccc1Cl
588 s	CCOCCCNC(=O)c1ccc2c(c1)nc1n2CCCCC1
824 s	Cc1ccc(CNC(=O)c2ccc3c(c2)CCN3C(=O)C2CC2)cc1
935 s	CS(=O)(=O)N1CCC(C(=O)Nc2ccccc2Cl)Oc2ccccc21 (centres undefined)
686 s	CC(=O)Nc1ccc(NC(=O)C2CCN(S(=O)(=O)c3ccc4c(c3)sc(=O)n4C)CC2)cc1
1050 s	CN(Cc1ccccc1)C(=O)c1cn(-c2cc(-c3nc(C(C)(C)C)no3)ccn2)cn1
880 s	COc1cc(NC(=O)c2ccc3cccc(O)c3n2)cc(OC)c1OC
819 s	Cc1ccc(NC(=O)CN2C(=O)CSC(C)C2=O)cc1Cl (centres undefined)
698 s	CC(C)CNC(=O)C1CC(=O)N(c2ccc3c(c2)CCN3C(=O)C2CC2)C1 (centres undefined)
796 s	COc1ccc(NC(=O)Cn2nc(N3CCCC3)c3ccccc3c2=O)cc1OC
782 s	Cc1ccc(CNC(=O)C2CCN(C(=O)c3ncn4c3COC(c3ccccc3)C4)CC2)cc1 (centres undefined)
944 s	O=C(Cn1cccc1-c1nnc(C2CC2)o1)N1CCN(c2cccc(Cl)c2)CC1
1070 s	CCOC(=O)c1ccc(NC(=O)c2cnn(-c3ccc(Br)cc3)c2)cc1
793 s	O=C(O)c1ccc2c(c1)n(Cc1ccc(F)cc1)c(=O)c1ccnn12
673 s	Cc1ccc(N2CC(C(=O)N(C)C)CC2=O)cc1 (centres undefined)
817 s	CCN(C(=O)CN1C(=O)NC(c2ccc(C)cc2)C2=C1COC2=O)c1cccc(C)c1 (centres undefined)
608 s	Cc1ccc2[nH]c(=O)c(CCC(=O)NCCCN3CCCC3=O)cc2c1
651 s	COC(=O)CNC(=O)N1CCN(Cc2ccc(C)cc2)c2ncccc21
808 s	COc1ccc(N2C=C(C(=O)N3CCCC3)S(=O)(=O)c3ccccc32)cc1Cl
856 s	O=C(CCC1CCCN(C(=O)Nc2ccc(F)cc2)C1)NCc1ccc(Cl)cc1 (centres undefined)
845 s	Cn1cc(C(=O)NCc2ccc(F)cc2)c(S(=O)(=O)N2CCSCC2)n1
1040 s	CC1Oc2ccccc2N(Cc2nc(-c3ccccc3)no2)C1=O (centres undefined)
945 s	COc1cc(OC)c(NC(=O)NC2CCN(c3nc4ccccc4n(C)c3=O)CC2)cc1Cl

RP-LC retention time	SMILES
1100 s	Cc1ccccc1CN1C(=O)N(c2ccc(F)cc2)c2ncccc2S1(=O)=O
692 s	CCNC(=O)C1CCCN(c2nc3ncn(CC(=O)NCCC4=CCCCC4)c(=O)c3s2)C1 (centres undefined)
793 s	O=C(Nc1nnc(C2CC(=O)N(c3ccccc3)C2)o1)c1ccc(C(F)(F)F)cc1 (centres undefined)
696 s	O=C1CCCN1c1ccc(Cn2cccc(S(=O)(=O)N3CCCC3)c2=O)cc1
928 s	CCc1ccc(C2=C(C)C(N3CCCN(C(=O)NC(C)(C)C)CC3)=NS2(=O)=O)cc1
916 s	Cc1ccc(/C=C2\CCOC2=O)cc1
1180 s	CCCOc1nc2ccccc2nc1N1CCCC(C(=O)NCc2ccccc2)C1 (centres undefined)
945 s	Cc1ccc(NC(=O)C2CCN(S(C)(=O)=O)c3cc(C)ccc3O2)c(C)c1 (centres undefined)
996 s	CC1(C)CC(=O)C2=C(C1)N(Cc1ccco1)C(=O)C2(NC(=O)CCc1ccccc1)C(F)(F)F (centres undefined)
662 s	O=C(CCNc1c(-c2ccccc2)nc2cnccn12)NCc1cccs1
599 s	COc1ccccc1OC(C)C(=O)N1CCN(c2cc(C)n3cnnc3n2)CC1 (centres undefined)
551 s	Cc1ccc(CN2CC(CO)C3(CCNCC3)C2)cc1C (centres undefined)
955 s	CC1CCCN(c2cc(SCC(=O)Nc3ccc(F)cc3)ncn2)C1 (centres undefined)
786 s	Cc1ccc(NC(=O)NCCn2c(C(F)(F)F)nc3cccnc32)cc1F
553 s	Cc1cc(NC(=O)CSc2nnc(CCc3nc4ccccc4[nH]3)o2)no1
1030 s	Cc1ccc(CNC(=O)CCc2nc(N3CCCCC3)c3c(-c4ccc(F)cc4)noc3n2)o1
816 s	Cn1c(=O)c(N2CCC(NC(=O)NCc3cccc(F)c3)CC2)nc2ccccc21
912 s	Cc1nc(-c2cn(C(C)C)c3ncccc23)sc1C(=O)NCc1ccco1
704 s	O=C(Nc1ccc(Cl)cc1C(F)(F)F)N1CCC(n2cnnc2C2CC2)C1 (centres undefined)
734 s	Clc1ccc(-c2ccc(CNCc3ccccn3)o2)c(Cl)c1
720 s	COc1ccc(C(=O)NC2CCN(c3cc(-c4cccs4)[nH]n3)C2)cc1F (centres undefined)
794 s	CSc1ccc(CNC(=O)Cc2nnc(-c3cccc(F)c3)o2)cc1
738 s	Cc1cc2c(N3CCCC(C(=O)NCc4ccccc4C(F)(F)F)C3)nccc2s1 (centres undefined)
